“Also recorded” adds a separate entry of the source.
Legend:
Type in all cases: cell-based
OR10G7 = molecular target: T1, OR10G7 (Homo sapiens, UniProt Q8NGN6, T5S); assay: Ligand-induced OR-dependent puromycin resistance, OR10G7 cells; conditions: HEK293T, pGL4.29-CRE-Puro-Hygro-OR with OR10G7; musk ketone 10 μM, eugenol or isoeugenol 1 μM, ultravanil or vanitrope 100 μM; puromycin 0.015-16 μg/ml; PrestoBlue viability day 4
T1 construct: expressed in transfected cells
T1 sequence (Q8NGN6 1-311 T5S): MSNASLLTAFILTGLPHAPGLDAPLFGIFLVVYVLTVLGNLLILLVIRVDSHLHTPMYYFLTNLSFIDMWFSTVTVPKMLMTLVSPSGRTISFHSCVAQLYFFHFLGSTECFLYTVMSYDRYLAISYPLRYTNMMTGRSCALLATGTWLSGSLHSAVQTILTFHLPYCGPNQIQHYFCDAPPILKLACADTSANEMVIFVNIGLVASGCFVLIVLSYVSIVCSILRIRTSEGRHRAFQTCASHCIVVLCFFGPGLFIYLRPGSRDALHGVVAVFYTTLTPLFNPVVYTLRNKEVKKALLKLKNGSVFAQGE
Procedure: (§1) Stable clones selected with hygromycin containing a stable insertion of the pGL4.29-CRE-Puro-Hygro-OR construct described in Example 1 with either one of the receptors OR10G7, OR10G9 or OR5AN1 (NCBI Genbank Gene ID 390265, 219870 and 390195) were plated at a density of 3000 cells/per well in 200 μl Dubelcco's Modified Eagle medium (DMEM) in polyethyleneimide-coated, white 96 well microtiter plates with a transparent bottom. After cells were allowed to adhere for 24 h, they were exposed to different odorants (musk ketone at 10 μM, eugenol or isoeugenol at 1 μM, ultravanil or vanitrope at 100 μM). 7 h after odorant addition, 100 μl of the medium was removed and replaced with fresh medium with the same odorant concentrations and, in addition, puromycin to reach a final concentration of 0.015-16 μg/ml in 11 twofold dilution steps (day 1 of selection). On day 2 and 3, 100 μl of the medium was again removed and replaced with fresh medium with the same concentration of odorant and puromycin. On day 4 of the selection, medium from each well was removed completely, 100 ul PrestoBlue® cell viability reagent (ThermoFisher Scientific, Catalog No: 14200-083) diluted in phosphate buffered saline was added to each well and cells were incubated at 37° C. until a color change was visible in the wells containing no puromycin. The fluorescence was determined at 560 excitation and 590 nm emission to assess relative cell metabolic activity, which is the net result of cell growth and cell killing in presence of the different puromycin concentrations. The result was expressed as % viability relative to controls with no cells (0%) and cells treated with olfactory ligand only (100%).

OR5AN1 = molecular target: T2, OR5AN1 (Homo sapiens, UniProt Q8NGI8); assay: Ligand-induced OR-dependent puromycin resistance, OR5AN1 cells; conditions: HEK293T, pGL4.29-CRE-Puro-Hygro-OR with OR5AN1; musk ketone 10 μM, eugenol or isoeugenol 1 μM, ultravanil 100 μM; puromycin 0.015-16 μg/ml; PrestoBlue viability day 4
T2 construct: expressed in transfected cells
T2 sequence (Q8NGI8 1-311): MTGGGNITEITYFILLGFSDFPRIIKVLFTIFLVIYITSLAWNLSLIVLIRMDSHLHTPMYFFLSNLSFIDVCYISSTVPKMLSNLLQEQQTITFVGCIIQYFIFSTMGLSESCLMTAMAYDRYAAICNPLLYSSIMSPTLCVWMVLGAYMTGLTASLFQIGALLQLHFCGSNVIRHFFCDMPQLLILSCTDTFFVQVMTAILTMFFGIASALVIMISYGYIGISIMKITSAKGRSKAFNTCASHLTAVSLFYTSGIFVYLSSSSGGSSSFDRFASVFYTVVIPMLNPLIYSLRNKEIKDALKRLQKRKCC
Procedure: as §1

OR10G9 = molecular target: T3, OR10G9 (Homo sapiens, UniProt Q8NGN4); assay: Ligand-induced OR-dependent puromycin resistance, OR10G9 cells; conditions: HEK293T, pGL4.29-CRE-Puro-Hygro-OR with OR10G9; musk ketone 10 μM, eugenol or isoeugenol 1 μM, ultravanil or vanitrope 100 μM; puromycin 0.015-16 μg/ml; PrestoBlue viability day 4
T3 construct: expressed in transfected cells
T3 sequence (Q8NGN4 1-311): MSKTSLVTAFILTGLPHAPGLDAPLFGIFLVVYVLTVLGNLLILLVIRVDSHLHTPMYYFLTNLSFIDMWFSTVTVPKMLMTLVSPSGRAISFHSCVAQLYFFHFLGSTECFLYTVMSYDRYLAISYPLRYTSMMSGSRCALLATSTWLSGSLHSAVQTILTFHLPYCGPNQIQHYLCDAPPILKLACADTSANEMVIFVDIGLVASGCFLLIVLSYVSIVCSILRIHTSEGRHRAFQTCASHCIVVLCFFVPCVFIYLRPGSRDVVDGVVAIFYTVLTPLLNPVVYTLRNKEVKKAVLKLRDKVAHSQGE
Procedure: as §1

Row | SMILES | puromycin resistance in presence of odorant versus solvent control (OR10G7) | puromycin resistance in presence of odorant versus solvent control (OR5AN1) | puromycin resistance in presence of odorant versus solvent control (OR10G9)
1 | CC(=O)c1c(C)c([N+](=O)[O-])c(C(C)(C)C)c([N+](=O)[O-])c1C [musk ketone] | does not increase resistance over solvent control; also recorded: no induced puromycin resistance over solvent control | increased resistance to puromycin; also recorded: enhanced puromycin resistance | no increased resistance
2 | C=CCc1ccc(O)c(OC)c1 [eugenol] | increased resistance to puromycin; also recorded: strongly enhanced puromycin resistance | do not increase resistance over solvent control; also recorded: the resistance was equal to the solvent control | no increased resistance

— US20240426807A1, “SCREENING SYSTEM” (Givaudan SA, priority 2021, published 2024)
